Data from paper PMC9515952, “Tentative exploration of pharmacodynamic substances: Pharmacological effects, chemical compositions, and multi-components pharmacokinetic characteristics of ESZWD in CHF-HKYd rats” (Frontiers in Cardiovascular Medicine, 2022).
Like-named read-outs stand apart in the source and are kept apart here.

Legend:
[1] = Pharmacokinetics of four components of ESZWD in CHF-HKYd rat serum by UPLC-MS/MS; assay type: in vivo; design: AUC(0-t) / AUC(0−t) / AUC(0-inf) / AUC(0−∞): concentration or dose not given beside the values; conditions: CHF-HKYd rat serum after oral administration of ESZWD, mean ± SD, n = 6
Description: All rats were randomly divided into control group, model group, ESZWD low-dose (3.96 g/kg), medium-dose (7.92 g/kg), high-dose (15.84 g/kg) groups, and positive control group (benazepril, 0.5 mg/kg), with six rats in each group. The CHF-HKYd was established after 1 week of feeding. ESZWD and benazepril were administered by gavage separately for 4 weeks after successful modeling, except for the control group. Blood was collected for 5, 10, 20, 30, 45 min, 1, 2, 4, 6, 8, 12, and 24 h, standing for 2 h and centrifuged at 4°C, 3,500 rpm for 10 min, the supernatant was retained. The state of rats was observed and the urine volume at 24 h was measured. The structure and function of rat heart were evaluated by doppler ultrasonography. Serum biomarkers including myocardial injury indicators NT-proBNP, angiotensinII (AngII), aldosterone (ALD), reactive oxygen species (ROS), superoxide dismutase (SOD), malondialdehyde (MDA), and tumor necrosis factor α (TNF-α) and interleukin 6 (IL-6) were detected by ELISA.
Chromatographic analysis was performed using ACQUITY UPLC BEH C18 column (2.1 × 50 mm, […]), the mobile phase was acetonitrile (A) 0.1% formic acid water (B), the flow rate was set as 0.2 mL·min^−1, the column temperature was 35°C, the injection volume was 2 μL, and the gradient conditions were as follows: 0–8 min: 6–11%A, 8–23 min: 11–19%A, 23–45 min: 19–38%A, 45–55 min: 38–47%A, 55–55.1 min: 47–52%A, 55.1–65 min: 52–90%A, 65–66 min: 90–6%A of UPLC-Q-TOF/MS analysis and 0–3 min: 8–10%A, 3–3.5 min: 10–70% A, 3.5–5: 70–80%A, 5–5.1 min: 80–8% A, 5.1–6 min: 8% A of UPLC-MS/MS.
Mass spectrometric detection of UPLC-MS/MS analysis was carried out on electrospray ionization (ESI) ion source, multiple reaction monitoring (MRM) mode, ion spray voltage of 5,500 V, the curtain gas and collision gas were 40 and 9 kPa, respectively, declustering potential (DP) and collision voltage (CE) are shown in Table 1.

[2] = rat; for Stability, Room temperature, Mean ± SD: 4 h; for Stability, Automatic sampler, Mean ± SD: 8 h; for Stability, Long-term freeze, Mean ± SD: 7 d
Description: (§1) The stability of all probe drugs was evaluated by LQC and HQC samples under different experimental conditions, including short-term stability [4 h at room temperature (25°C), 8 h in the automatic sampler, and three freeze and thaw cycles, respectively] and long-term stability (7 d at −80°C).

[3] = Stability of four compounds in rat serum (UPLC-MS/MS method validation); conditions: n = 5; for Stability, Room temperature, Mean ± SD: 4 h at room temperature (25°C); for Stability, Automatic sampler, Mean ± SD: 8 h in the automatic sampler; for Stability, Long-term freeze, Mean ± SD: 7 d at −80°C; for Stability, Multigelation, Mean ± SD: three freeze and thaw cycles
Description: as §1

[4] = added 20 ng/mL (salsolinol) or 1 ng/mL (others)
[5] = added 100 ng/mL (salsolinol) or 10 ng/mL (others)
[6] = added 750 ng/mL (salsolinol) or 150 ng/mL (others)

C[C@@]12C[C@@]3(O)O[C@@H](O1)[C@]1(COC(=O)c4ccccc4)[C@H]3C[C@@]12O[C@@H]1O[C@H](CO)[C@@H](O)[C@H](O)[C@H]1O [Paeoniflorin]
V/F [1]: 41.20 ± 0.83 L/kg
AUC(0-inf) ([1]; Sprague-Dawley (SD)): 2260 ± 179 ng·h/mL
AUC(0-t) ([1]; Sprague-Dawley (SD)): 2240 ± 178 ng·h/mL
half-life ([1]; Sprague-Dawley (SD)): 3.22 ± 0.34 h
CL/F ([1]; Sprague-Dawley (SD), read-out: CL/F (converted)): 148 mL/min/kg
Cmax ([1]; Sprague-Dawley (SD), read-out: Cmax): 198 ± 27.7 ng/mL
Tmax ([1]; Sprague-Dawley (SD), read-out: Tmax): 6 ± 2.54 h
half-life ([1]; Sprague-Dawley): ~3 h
Stability, Multigelation, Mean ± SD ([2]; 1 ng/mL): 1.012 ± 0.07 ng/mL
Stability, Multigelation, Mean ± SD ([2]; 10 ng/mL): 10.41 ± 0.73 ng/mL
Stability, Multigelation, Mean ± SD ([2]; 150 ng/mL): 162.2 ± 9.25 ng/mL
Stability, Room temperature, Mean ± SD ([2]; 1 ng/mL): 1.046 ± 0.06 ng/mL
Stability, Room temperature, Mean ± SD ([2]; 10 ng/mL): 10.18 ± 0.72 ng/mL
Stability, Room temperature, Mean ± SD ([2]; 150 ng/mL): 160.7 ± 5.68 ng/mL
Stability, Automatic sampler, Mean ± SD ([2]; 1 ng/mL): 1.053 ± 0.02 ng/mL
Stability, Automatic sampler, Mean ± SD ([2]; 10 ng/mL): 10.51 ± 0.98 ng/mL
Stability, Automatic sampler, Mean ± SD ([2]; 150 ng/mL): 160.2 ± 6.15 ng/mL
Stability, Long-term freeze, Mean ± SD ([2]; 1 ng/mL): 1.010 ± 0.08 ng/mL
Stability, Long-term freeze, Mean ± SD ([2]; 10 ng/mL): 10.19 ± 0.97 ng/mL
Stability, Long-term freeze, Mean ± SD ([2]; 150 ng/mL): 149.6 ± 11.70 ng/mL

C[C@@H]1NCCc2cc(O)c(O)cc21 [Salsolinol]
AUC(0−t) [1]: 2,327 ± 261.0 ng/mL·h
AUC(0−∞) [1]: 2,344 ± 265.7 ng/mL·h
CL/F [1]: 143.8 ± 16 mL/min/kg
Cmax [1]: 314.2 ± 36.84 ng/mL
T1/2 [1]: 3.271 ± 0.58 h
Tmax [1]: 1.25 ± 0.59 h
V/F [1]: 40.68 ± 9.03 L/kg
T1/2 ([1]; listed as salsolinol): about 3 h
Stability, Room temperature, Mean ± SD [3, 4]: 21.07 ± 0.74 ng/mL
Stability, Room temperature, Mean ± SD [3, 5]: 112.2 ± 4.13 ng/mL
Stability, Room temperature, Mean ± SD [3, 6]: 700.5 ± 49.6 ng/mL
Stability, Automatic sampler, Mean ± SD [3, 4]: 20.68 ± 0.61 ng/mL
Stability, Automatic sampler, Mean ± SD [3, 5]: 111.3 ± 2.63 ng/mL
Stability, Automatic sampler, Mean ± SD [3, 6]: 716.3 ± 22.1 ng/mL
Stability, Long-term freeze, Mean ± SD [3, 4]: 20.9 ± 1.2 ng/mL
Stability, Long-term freeze, Mean ± SD [3, 5]: 103.9 ± 6.16 ng/mL
Stability, Long-term freeze, Mean ± SD [3, 6]: 685.1 ± 43.66 ng/mL
Stability, Multigelation, Mean ± SD [3, 4]: 21.15 ± 0.54 ng/mL
Stability, Multigelation, Mean ± SD [3, 5]: 110.7 ± 1.34 ng/mL
Stability, Multigelation, Mean ± SD [3, 6]: 727.6 ± 68.05 ng/mL

Miltrione
AUC(0−t) [1]: 1,098 ± 69.72 ng/mL·h
AUC(0−∞) [1]: 1,125 ± 84.73 ng/mL·h
CL/F [1]: 297.8 ± 23 mL/min/kg
Cmax [1]: 178.9 ± 16.24 ng/mL
T1/2 [1]: 4.25 ± 0.82 h
Tmax [1]: 1.00 ± 0.00 h
V/F [1]: 108.7 ± 15.80 L/kg
